Test results taken from the NIST ThermoML archive (doi:10.1021/je060271a).
Numbers after ± are expanded uncertainties.

Details: 343.14 K, Liquid, Vibrating tube method

CCCCCCC(=O)OCC(COC(=O)CCCCCC)(COC(=O)CCCCCC)COC(=O)CCCCCC [pentaerythritol tetraheptanoate]
Details	mass density [kg/m3]
14033 kPa	950.8 ± 1.2
14046 kPa	950.8 ± 1.2
14058 kPa	950.9 ± 1.2
14074 kPa	950.7 ± 1.2
14087 kPa	950.9 ± 1.2
14100 kPa	950.9 ± 1.2
14113 kPa	950.8 ± 1.2
14129 kPa	950.8 ± 1.2
14142 kPa	950.8 ± 1.2
14157 kPa	951 ± 1.2
14170 kPa	951 ± 1.2
14183 kPa	951 ± 1.2
14199 kPa	951 ± 1.2
14212 kPa	950.9 ± 1.2
14225 kPa	950.9 ± 1.2
14239 kPa	951 ± 1.2
14255 kPa	951 ± 1.2
14268 kPa	950.9 ± 1.2
14281 kPa	951.1 ± 1.2
14298 kPa	951 ± 1.2
14311 kPa	951.1 ± 1.2
14324 kPa	951 ± 1.2
14340 kPa	950.9 ± 1.2
14354 kPa	951.1 ± 1.2
14367 kPa	951.1 ± 1.2
14383 kPa	951 ± 1.2
16135 kPa	952.3 ± 1.2
16152 kPa	952.4 ± 1.2
16173 kPa	952.3 ± 1.2
16190 kPa	952.3 ± 1.2
16208 kPa	952.3 ± 1.2
16228 kPa	952.4 ± 1.2
16245 kPa	952.4 ± 1.2
16263 kPa	952.3 ± 1.2
16283 kPa	952.4 ± 1.2
16301 kPa	952.4 ± 1.2
16319 kPa	952.4 ± 1.2
16339 kPa	952.5 ± 1.3
16357 kPa	952.5 ± 1.2
16376 kPa	952.4 ± 1.2
16394 kPa	952.5 ± 1.2
16415 kPa	952.5 ± 1.2
16433 kPa	952.5 ± 1.2
16451 kPa	952.7 ± 1.2
16472 kPa	952.5 ± 1.2
16490 kPa	952.5 ± 1.2
16508 kPa	952.6 ± 1.2
16526 kPa	952.6 ± 1.2
16548 kPa	952.6 ± 1.2
16566 kPa	952.5 ± 1.2
16585 kPa	952.6 ± 1.2
16607 kPa	952.7 ± 1.2
16626 kPa	952.7 ± 1.2
16645 kPa	952.7 ± 1.2
16664 kPa	952.6 ± 1.2
16682 kPa	952.6 ± 1.2
16704 kPa	952.7 ± 1.2
16722 kPa	952.8 ± 1.2
16744 kPa	952.8 ± 1.2
16763 kPa	952.7 ± 1.2
16781 kPa	952.7 ± 1.2
16800 kPa	952.7 ± 1.2
16822 kPa	952.8 ± 1.2
16841 kPa	952.8 ± 1.2
16863 kPa	952.8 ± 1.2
16901 kPa	952.8 ± 1.2
16924 kPa	952.8 ± 1.2
16943 kPa	952.9 ± 1.2
16962 kPa	953 ± 1.2
16981 kPa	952.9 ± 1.2
17004 kPa	952.9 ± 1.2
17022 kPa	953 ± 1.2
17042 kPa	953 ± 1.2
17065 kPa	953 ± 1.2
17084 kPa	953.1 ± 1.2
17107 kPa	952.9 ± 1.2
17126 kPa	952.9 ± 1.2
17146 kPa	953 ± 1.2
17165 kPa	953 ± 1.2
17188 kPa	953.1 ± 1.2
17208 kPa	953 ± 1.2
17227 kPa	953.1 ± 1.2
17251 kPa	953.1 ± 1.2
17270 kPa	953.2 ± 1.2
17294 kPa	953.2 ± 1.2
17314 kPa	953.2 ± 1.2
17334 kPa	953.1 ± 1.2
17358 kPa	953.1 ± 1.2
17378 kPa	953.1 ± 1.2
17398 kPa	953.2 ± 1.2
17419 kPa	953 ± 1.2
17443 kPa	953.1 ± 1.2
17593 kPa	953.4 ± 1.2
17613 kPa	953.2 ± 1.2
17638 kPa	953.3 ± 1.2
17659 kPa	953.4 ± 1.2
17680 kPa	953.3 ± 1.2
17701 kPa	953.4 ± 1.2
17722 kPa	953.4 ± 1.2
17747 kPa	953.4 ± 1.2
17768 kPa	953.5 ± 1.2
17789 kPa	953.5 ± 1.2
17815 kPa	953.5 ± 1.2
17835 kPa	953.5 ± 1.2
17860 kPa	953.4 ± 1.2
17902 kPa	953.5 ± 1.2
17928 kPa	953.4 ± 1.2
18040 kPa	953.6 ± 1.2
18066 kPa	953.6 ± 1.2
18088 kPa	953.5 ± 1.2
18109 kPa	953.6 ± 1.2
18130 kPa	953.7 ± 1.2
